Data reported in patent US7759101B2, “Ginsenoside glycosidases hydrolyzing ginsenoside sugar moieties and uses thereof” (priority 2000, dated 2010).

Assays:
[1] = system: ginsenoside glycosidase II; test: Hydrolysis of ginsenosides with ginsenoside glycosidase II (Fraction 54); format: biochemical, Aspergillus niger; settings: substrate 0.5%, pH 5.0, 30° C., 18 hours
Method: 10 ml of the enzyme solution obtained in 1.1 was subjected to a DEAE-Cellulose DE-52 column (Pharamcia, 1.5×6.7 cm) to absorb the enzyme protein. The column was then eluted with a NaCl gradient (0.06, 0.12, 0.18, 0.24, 0.3, 0.4, 0.5 and 0.6M).
Fraction 54 which was eluted with 0.18 M NaCl from the DEAE-Cellulose column was lyophilized and appeared as a single dot when running on a SDS-polyacrylamide gel with a molecular weight of 90,000 Daltons. Therefore, it represented a purified enzyme and designated as ginsenoside glycosidase II.
(§1) To observe the differences between the ginsenoside glycosidases of the invention and known exo-cellulases, the ginsenoside glycosidases of the invention were compared with cellulose β-glucosidase (E.C. 3.2.1.21) in two reactions with 0.5% ginsenosides Rb1 or Rd as substrate.

[2] = system: Almond cellulose β-glucosidase(EC 3.2.1.21); test: Comparison: hydrolysis of ginsenosides with almond cellulose β-glucosidase; format: biochemical; settings: substrate 0.5%, pH 5.0, 30° C., 18 hours
Excerpt: as §1

[3] = system: ginsenoside glycosidases from A. oryzae; test: Hydrolysis of ginsenosides with crude ginsenoside glycosidases from A. oryzae, TLC; format: biochemical, Aspergillus oryzae; settings: pH 5.0, 30° C., 18 hours
Method: Aspergillus oryzae FFCCDL-39 g (available from Food Fermentation Culture Collection of Dalian Institute of Light Industry) was cultured with stirring in a medium containing 1% ginseng extracts and 3% wheat bran extracts at 30° C. for 64 hours. Cells were removed by centrifugation, after which (NH4)2SO4 powder was added to 2000 ml of the cell-free supernatant with stirring to 65% saturation. The solution was stored overnight at 4° C. and precipitated proteins were collected by centrifugation, resuspended in 80 ml of distilled water and dialyzed against 0.01M acetate buffer pH 5. Insolubles were removed by centrifugation, and the solution was adjusted to 200 ml with 0.01 M acetate buffer pH 5. The crude enzyme solution may be used to hydrolyze ginsenosides or to purify the enzymes.
Each 100 mg of ginsenosides Rb1, Rb2, Rc Re and Rd and each 10 mg of ginsenoside Rg3 and Rg2 were dissolved in separate tubes containing 10 ml of 0.01M acetate buffer pH 5. 10 ml of the crude enzyme solution obtained as above was added to each tube and allowed to react at 30° C. for 18 hours. Then 10 ml of n-butanol was added to stop the reactions. The products were measured by thin layer chromatography (TLC) (Silica gel 60-F254, Merck; chloroform:methanol:water 70:30:5). […]

[4] = system: ginsenoside glycosidase I from ginseng plants; test: Hydrolysis of ginsenosides with fraction 52 (ginsenoside glycosidase I) from ginseng plant; format: biochemical; settings: Fraction 52; substrate 0.5%; 50° C., pH 5.0, 18 hours
Method: 200 g of fresh ginseng root was cut into pieces and added to 600 ml of 0.02 M acetate buffer pH 5. Supernatant was obtained by filtration after the mixture stand at 40° C. for 2 hours. To the supernatant (NH4)2SO4 was added gradually until 70% saturation and the mixture stand overnight at 4° C. Then protein pellets were collected by centrifugation and redissolved in 15 ml of distilled water. The solution was dialyzed against 0.02 M Tris-HCl pH 7.4. Insolubles were removed by centrifugation and the volume of the supernatant was adjusted to 20 ml.
5 ml of the enzyme solution was subjected to a DEAE-Cellulose DE-25 column (Whatman, 1.4×6.7 cm). The column was eluted with a KCl gradient (0.06, 0.12, 0.18 and 0.24 M) in 0.02 M Tris-HCl pH 7.4. After elution, each fraction was tested for the activity of hydrolyzing ginsenosides. […] Fraction 52 can also hydrolyze the glucosidic bond at the twentieth carbon atom of Rb and Rc to give ginsenoside F2.

CC(C)=CCC[C@](C)(O[C@@H]1O[C@H](CO)[C@@H](O)[C@H](O)[C@H]1O)[C@H]1CC[C@]2(C)[C@@H]1[C@H](O)C[C@@H]1[C@@]3(C)CC[C@H](O[C@@H]4O[C@H](CO)[C@@H](O)[C@H](O)[C@H]4O[C@@H]4O[C@H](CO)[C@@H](O)[C@H](O)[C@H]4O)C(C)(C)[C@@H]3CC[C@]12C [Rd, ginsenoside Rd]
Percentage of Rd in the reaction product [1]: 90% | Percentage of Rg3 in the reaction product [1]: 5% | Percentage of Rb1 in the reaction product [2]: 100% | Percentage of C—K in the reaction product [3]: 29% | Percentage of F2 in the reaction product [3]: 40% | Percentage of Rd in the reaction product [3]: 25% | Percentage of Rg3 in the reaction product [3]: 1% | Percentage of aglycone in the reaction product [3]: 5% | Percentage of F2 in the reaction product [4]: 40% | Percentage of Rd in the reaction product [4]: 60%

CC(C)=CCC[C@](C)(O[C@@H]1O[C@H](CO[C@@H]2O[C@H](CO)[C@@H](O)[C@H](O)[C@H]2O)[C@@H](O)[C@H](O)[C@H]1O)[C@H]1CC[C@]2(C)[C@@H]1[C@H](O)C[C@@H]1[C@@]3(C)CC[C@H](O[C@@H]4O[C@H](CO)[C@@H](O)[C@H](O)[C@H]4O[C@@H]4O[C@H](CO)[C@@H](O)[C@H](O)[C@H]4O)C(C)(C)[C@@H]3CC[C@]12C [Rb1, ginsenoside Rb1]
Percentage of Rd in the reaction product [1]: 90% | Percentage of Rg3 in the reaction product [1]: 5% | Percentage of Rb1 in the reaction product [2]: 80% | Percentage of Rd in the reaction product [2]: 20% | Percentage of C—K in the reaction product [3]: 45% | Percentage of F2 in the reaction product [3]: 38% | Percentage of Rd in the reaction product [3]: 20% | Percentage of aglycone in the reaction product [3]: 2% | Percentage of F2 in the reaction product [4]: 70% | Percentage of Rd in the reaction product [4]: 30%
